# How the values were obtained:
# Assay type in all cases: cell-based, Human
# MSC cells = test: MTT cytotoxicity assay on normal cells; details: 72 h
# Method: The cytotoxic behaviors of MITO-DCA, TPP-DCA, Na-DCA, and TPP-Tris-(OH)3 were evaluated using the MTT assay against PC3, DU145, LNCaP, and MSC cells. Cells (2000 cells/well for PC3, DU145, and MSC cells; 5000 cells/well for LNCaP) were seeded on a 96-well plate in 100 μL of desired medium and incubated for 24 h. The cells were treated with different DCA compounds and TPP-Tris-(OH)3 at varying concentrations and incubated for 72 h at 37° C. The cells were then treated with 20 μL of MTT (5 mg/mL in PBS) for 5 h. The medium was removed, the cells were lysed with 100 μL of DMSO, and the absorbance of the purple tormazan was recorded at 550 nm using a Bio-Tek Synergy HT microplate reader. Each well was performed in triplicate. All experiments were repeated three times. Cytotoxicity was expressed as mean percentage increase relative to the unexposed control±SD. Control values were set at 0% cytotoxicity or 100% cell viability. Cytotoxicity data (where appropriate) was fitted to a sigmoidal curve and a three parameters logistic model used to calculate the IC50, which is the concentration of chemotherapeutics causing 50% inhibition in comparison to untreated controls. The mean IC50 is the concentration of agent that reduces cell growth by 50% under the experimental conditions and is the average from at least three independent measurements that were reproducible and statistically significant. The IC50 values were reported at ±99% confidence intervals. This analysis was performed with GraphPad Prism (San Diego, U.S.A).
# PC3 cells [1] = test: Annexin V/PI apoptosis detection by flow cytometry; details: 50 μM
# Method: In order to determine whether the enhanced activity of MITO-DCA upon targeting this compound to the mitochondria of cells was due to apoptosis rather than necrosis, an ALEXA FLUOR™ 488-Annexin-V and propidium iodide (PI) cell staining in PC3 and MSC cells was carried out and data were analyzed using flow cytometry (FIG. 4B). As controls, etoposide treated cells were used as early apoptosis population and H2O2 treated cells were marked as late apoptotic or necrotic population. […] There were no late apoptotic or necrotic cells observed with these compounds.
# PC3 and MSC cells were seeded at a density of 1×10^6 cells/mL on each well of a six well plate and allowed to grow overnight. Cells were treated with 50 μM Na-DCA, 150 μM TPP-DCA, and 150 μM MITO-DCA for 12 h at 37° C. As positive controls, etoposide (100 μM, incubation time: 12 h) for apoptosis and H2O2 (1 mM, incubation time: 45 min) for necrosis were used. The cells were trypsinized, repeatedly washed, and centrifuged at 1,800 RPM for 3 min, and the supernatants were discarded. Cell density was determined and cells were resuspended in 1× annexin-binding buffer to ˜1×10^6 cells/mL preparing a sufficient volume to have 100 µL per assay. To 100 μL of cell suspension, 5 μL ALEXA FLUOR™ 488 annexin V and 1 µL 100 μg/mL PI working solution were added and incubated for 15 min at room temperature. After the incubation period, 400 μL 1× annexin-binding buffer was added to each sample, samples were gently mixed keeping the samples on ice and the samples were analyzed on the flow cytometer immediately.
# PC3 cells [2] = test: Cytokine production by treated PC3 cells (ELISA); details: 50 μM, 24 h
# From the text: Cancer cells recruit several pathways to evade elimination by the immune system (Kim et al., Immunology 121:1-14, 2007). Several mechanisms by which tumor cells escape immunity include upregulation of inhibitory molecules, production of immunosuppressive cytokines, and downregulation of costimulatory molecules (Rabinovich et al., Annu. Rev. Immunol. 25:267-296, 2007). Dendritic cells (DCs), the major players for the initiation of a specific anti-tumor T-cell response, are potential target to tumor-mediated immunosuppression. (Gabrilovich et al., Nat. Med. 2:1096-1103, 1996; Radmayr et al., Int. J. Cancer 63:627-632, 1995; Orsini et al., Cancer Res. 63:4497-4506, 2003.) Lactic acid secretion in highly proliferative glycolytic tumor has the ability to induce alteration in antigen phenotype and functional activity of DCs, which contributes to the suppression of local immunity (Gottfried et al. 2006). Tumor derived lactic acid inhibit the differentiation of monocytes to DCs, impair DC activation and antigen expression and suppress the proliferation, cytokine production and cytotoxic activity of T cells (Fischer et al., Blood 109:3812-3819, 2007). After observing significant and very selective reduction in lactate levels in PCa cells by MITO-DCA, the impact of the reduced lactate producing PC3 cell supernatants on DCs was investigated. […]
smiles,measurement,setting,value
O=C(CCCCC[P+](c1ccccc1)(c1ccccc1)c1ccccc1)NC(COC(=O)C(Cl)Cl)(COC(=O)C(Cl)Cl)COC(=O)C(Cl)Cl.[Br-] [MITO-DCA],Toxicity in normal MSC cells,MSC cells,did not show any toxic effects
same,Apoptosis (annexin V/PI),PC3 cells [1],complete early apoptosis
same,"Levels of IL-6, IL-10 and TNF-α from PC3 cells, compared with TPP-DCA or Na-DCA",PC3 cells [2],higher
O=C(OCCC[P+](c1ccccc1)(c1ccccc1)c1ccccc1)C(Cl)Cl.[Br-] [TPP-DCA],Toxicity in normal MSC cells,MSC cells,did not show any toxic effects

# Reference: patent US10004809B2, “Precise delivery of therapeutic agents to cell mitochondria for anti-cancer therapy” (UNIVERSITY OF GEORGIA RESEARCH FOUNDATION, INC., priority 2013, dated 2018)
